Laboratory results from article PMC8571282 (Nature Communications, 2021).
Several values for one entry are separate records, joined by “and”; a condition that tells them apart may be missing. Equal values may be shown once. Read-outs that look alike come from different tables or passages of the source.

Tests used:
[1] = cited from earlier work
[2] = dogs, reported; cited from earlier work
“F2” primary HAE cells = experiment: Cytotoxicity assay (PrestoBlue), “F2” HAE; settings: 72 h; for % cell viability: F2 HAE
in vitro [3] = settings: hamster, % cell viability, 72 h
BHK-21 cells = experiment: Cytotoxicity assay (PrestoBlue), BHK-21; settings: 72 h
[4] = system: SARS-CoV-2 VOC γ (BZ/2021); assay type: in vivo, ferret (Mustela putorius furo)
[5] = system: “DF2” primary HAE cells (diseased, asthma); settings: 72 h
[6] = GS-441524 and metabolite concentrations in ferret lung tissue; settings: single 30 mg/kg oral GS-621763, 24 h
“M2” primary HAE cells = experiment: Cytotoxicity assay (PrestoBlue), “M2” HAE; settings: 72 h; for % cell viability: M2 HAE
in vitro [7] = settings: human, CC50, “M2” HAE
in vitro [8] = settings: male, human, % cell viability, M6 HAE, 0.046 µM
SARS-CoV-2 WA1/2020 = assay type: in vivo, ferret (Mustela putorius furo)
HCT-8 cells = experiment: Cytotoxicity assay (PrestoBlue), HCT-8; settings: for % cell viability: 72 h
in vitro [9] = settings: African green monkey, % cell viability, 72 h
HEp-2 cells = experiment: Cytotoxicity assay (PrestoBlue), HEp-2; settings: for % cell viability: 72 h

N#C[C@@]1(c2ccc3c(N)ncnn23)O[C@H](CO)[C@@H](O)[C@H]1O [GS-441524]
oral bioavailability ([1]; SARS-CoV2 mouse model report, ref Li et al (J. Med Chem. 2021)): 5% | oral availability ([1]; mice, ref Wei et al. (Bioorg. Med Chem Lett 2021, 116364)): 16% | oral availability [2]: 89%

CC(C)C(=O)OCC1OC(C#N)(c2ccc3c(N)ncnn23)C(OC(=O)C(C)C)C1OC(=O)C(C)C (stereo not shown) [GS-621763]
% cell viability (“F2” primary HAE cells; 0.046 µM): 84% and 81% | % cell viability (“F2” primary HAE cells; 1.235 µM): 109% | % cell viability (“F2” primary HAE cells; 3.704 µM): 109% | % cell viability (“F2” primary HAE cells; 33.333 µM): 87% and 80% | CC50 (“F2” primary HAE cells; “F2” HAE): 43.8 µM | viability at 72 h, 0.046 µM (in vitro [3]; BHK-21, 0.046 µM): 89% | viability at 72 h, 1.235 µM (in vitro [3]; BHK-21, 1.235 µM): 89% | viability at 72 h, 33.333 µM (in vitro [3]; BHK-21, 33.333 µM): 103% | % cell viability (BHK-21 cells; BHK-21, 0.046 µM, 0.046 µM): 79% | % cell viability (BHK-21 cells; BHK-21, 1.235 µM, 1.235 µM): 92% | % cell viability (BHK-21 cells; BHK-21, 3.704 µM, 3.704 µM): 96% and 93% | % cell viability (BHK-21 cells; BHK-21, 33.333 µM, 33.333 µM): 95% | % cell viability (BHK-21 cells; BHK-21, 100 µM, 100 µM): 84% | SARS-CoV-2 RNA copies in lungs of contacts (Fig 4G) ([4]; Contact - GS-621763): not detected | Nasal turbinate RNA, Mean Diff. GS-621763 vs. Contact - GS-621763 ([4]; Fig 4e, […], 10 mg/kg b.i.d.): 0.9216 | Nasal turbinate RNA, Mean Diff. GS-621763 vs. Contact - Vehicle ([4]; Fig 4e, […], 10 mg/kg b.i.d.): -3.233 | Nasal turbinate RNA, group mean of Contact - GS-621763 (Transform of Brazil - Nasal Turbinate RNA) ([4]; Fig 4e, […], contacts of GS-621763-treated source animals): 4.287 | Turbinate titers, Mean Diff. GS-621763 vs. Contact - GS-621763 ([4]; Fig 4d, […], 10 mg/kg b.i.d.): 0 | Turbinate titers, Mean Diff. GS-621763 vs. Contact - Vehicle ([4]; Fig 4d, […], 10 mg/kg b.i.d.): -3.824 | Turbinate titers, group mean of Contact - GS-621763 (Transform of Brazil - Turbinate Titers) ([4]; Fig 4d, […], contacts of GS-621763-treated source animals): 0.9542 | Infectious virus titer in nasal lavage of contacts (Fig 4B) ([4]; in vivo): 5 pfu | Nasal turbinate RNA, Mean Diff. Contact - Vehicle vs. Contact - GS-621763 ([4]; in vivo): 4.155 | Nasal turbinate RNA, Mean Diff. Vehicle vs. Contact - GS-621763 ([4]; in vivo): 4.881 | Turbinate titers, Mean Diff. Contact - Vehicle vs. Contact - GS-621763 ([4]; in vivo): 3.824 | Turbinate titers, Mean Diff. Vehicle vs. Contact - GS-621763 ([4]; in vivo): 3.511 | viral RNA in nasal turbinates of contact animals of treated source ferrets ([4]; in vivo): < 10^5 copies/g nasal turbinate | virus transmission to untreated direct-contact animals ([4]; in vivo): completely blocked virus transmission | % cell viability ([5]; DF2 HAE, 1.235 µM): 106% | % cell viability ([5]; DF2 HAE, 3.704 µM): 113% | % cell viability ([5]; DF2 HAE, 33.333 µM): 114% | % cell viability ([5]; human, 100 µM): 5% | GS-443902 levels in respiratory tissues trailing those of intravenous 10 mg/kg remdesivir [6]: approximately fourfold | % cell viability (“M2” primary HAE cells; 0.046 µM): 88% and 92% | % cell viability (“M2” primary HAE cells; 1.235 µM): 112% | % cell viability (“M2” primary HAE cells; 3.704 µM): 115% | % cell viability (“M2” primary HAE cells; 33.333 µM): 86% and 83% | CC50 (“M2” primary HAE cells; “M2” HAE): 39.7 µM | CC50 at 72 h (in vitro [7]): 39.7 µM | viability at 72 h, 0.046 µM (in vitro [8]): 92% | Transform of Nasal turbinate titers, Mean (treated) (SARS-CoV-2 WA1/2020; Fig 2f, 20 mg kg-1 b.i.d., sample size 4): 2.037 | Transform of Nasal turbinate titers, Difference between means (C - A) ± SEM (SARS-CoV-2 WA1/2020; Fig 2f, treated minus Vehicle, 20 mg kg-1 b.i.d., unpaired t test): -2.239 ± 0.3026 | Transform of Small Intestine copies/gram, Mean (treated) (SARS-CoV-2 WA1/2020; Fig 2i, 20 mg kg-1 b.i.d., sample size 4): 0 | Transform of Small Intestine copies/gram, Difference between means (C - A) ± SEM (SARS-CoV-2 WA1/2020; Fig 2i, treated minus Vehicle, 20 mg kg-1 b.i.d., unpaired t test): -1.018 ± 1.018 | Transform of Large Intestine copies/gram, Mean (treated) (SARS-CoV-2 WA1/2020; Fig 2j, 20 mg kg-1 b.i.d., sample size 4): 0 | Transform of Large Intestine copies/gram, Difference between means (C - A) ± SEM (SARS-CoV-2 WA1/2020; Fig 2j, treated minus Vehicle, 20 mg kg-1 b.i.d., unpaired t test): -1.911 ± 1.104 | Transform of Nasal Turbinate RNA copies/g, Mean (treated) (SARS-CoV-2 WA1/2020; Fig 2h, 20 mg kg-1 b.i.d., sample size 4): 3.868 | Transform of Nasal Turbinate RNA copies/g, Difference between means (C - A) ± SEM (SARS-CoV-2 WA1/2020; Fig 2h, treated minus Vehicle, 20 mg kg-1 b.i.d., unpaired t test): -2.950 ± 0.3528 | SARS-CoV-2 RNA copies in lungs (SARS-CoV-2 WA1/2020; in vivo): not detected | SARS-CoV-2 infectious particles in lungs (SARS-CoV-2 WA1/2020; in vivo): 109 pfu | Virus titers from nasal lavages (SARS-CoV-2 WA1/2020; in vivo): 9 pfu | shed SARS-CoV-2 load in nasal lavages (SARS-CoV-2 WA1/2020; in vivo): transiently detectable in lavages of only one ferret | viral RNA copy numbers in turbinates, difference between vehicle and treatment groups (SARS-CoV-2 WA1/2020; in vivo): three | virus in nasal turbinates 4 days after infection (SARS-CoV-2 WA1/2020; in vivo): undetectable | % cell viability (HCT-8 cells; HCT-8, 0.046 µM, 0.046 µM): 75% and 72% | % cell viability (HCT-8 cells; HCT-8, 1.235 µM, 1.235 µM): 103% | % cell viability (HCT-8 cells; HCT-8, 33.333 µM, 33.333 µM): 96% | % cell viability (HCT-8 cells; HCT-8, 100 µM, 100 µM): 1% | CC50 (HCT-8 cells; HCT-8, 72 h): 74.6 µM | viability at 72 h, 1.235 µM (in vitro [9]; VeroE6, 1.235 µM): 87% | viability at 72 h, 3.704 µM (in vitro [9]; VeroE6, 3.704 µM): 87% | viability at 72 h, 33.333 µM (in vitro [9]; VeroE6, 33.333 µM): 101% | % cell viability (HEp-2 cells; HEp-2, 0.046 µM, 0.046 µM): 67% and 49% | % cell viability (HEp-2 cells; HEp-2, 3.704 µM, 3.704 µM): 107% and 97% | CC50 (HEp-2 cells; HEp-2, 72 h): 79.4 µM
